One may read the MIC as the lowest concentration found to suppress growth. The low end stands for a more susceptible organism, the high end for a less susceptible organism.

Consider 13 compounds from DBAASP.

Holding throughout (assay): ≥ marks a high value that may be exact or a test limit, other limits are often not marked, values filed in µg/mL are converted to µM
In assay [1] the test system is Escherichia coli UB1005.
Assay [2] concerns Pseudomonas aeruginosa PAO1.
Assay [3] concerns Staphylococcus aureus ATCC 25923.
The subject of assay [4] is Pseudomonas aeruginosa ATCC 27853.
Assay [5] concerns Escherichia coli ATCC 25922.
Assay [6] relates to Acinetobacter baumannii ATCC 19606.
Assay [7] has as its system Escherichia coli.
For assay [8], the system named is Candida albicans.
Assay [9] deals with Staphylococcus aureus.
The subject of assay [10] is Bacillus subtilis ATCC 6633.
Assay [11] deals with Klebsiella pneumoniae.
For assay [12], the system named is Candida albicans ATCC 90028.
For assay [13], the system named is Staphylococcus epidermidis ATCC 12228.
The subject of assay [14] is Staphylococcus aureus ATCC 29213.
Assay [15] concerns Candida albicans ATCC 10231.
The test system of assay [16] is Klebsiella pneumoniae ATCC 700603.

≈ marks a conversion by molar mass, not a printed value.

Take `CC[C@H](C)[C@H](NC(=O)[C@H](CCCN=C(N)N)NC(=O)[C@H](CCCN=C(N)N)NC(=O)[C@@H]1CCCN1C(=O)[C@H](Cc1c[nH]c2ccccc12)NC(=O)[C@H](CCCN=C(N)N)NC(=O)[C@@H]1CCCN1C(=O)[C@H](CCCN=C(N)N)NC(=O)[C@@H]1CCCN1C(=O)[C@H](CC(C)C)NC(=O)[C@H](Cc1ccc(O)cc1)NC(=O)[C@@H]1CCCN1C(=O)[C@@H]1CCCN1C(=O)[C@H](CCCCN)NC(=O)[C@H](CC(=O)O)NC(=O)[C@@H](N)C(C)C)C(=O)N[C@@H](Cc1ccc(O)cc1)C(=O)N[C@@H](CC(N)=O)C(=O)N[C@@H](CCCN=C(N)N)C(N)=O` [VDKPPYLPRPRWPRRIYNR]: the figures for the MIC in assay [1], in assay [2] and in assay [3] were 1.01 µM (≈ 2.5 µg/mL), 12.9 µM (≈ 32 µg/mL) and 6.45 µM (≈ 16 µg/mL), respectively.

Turning to `CC(C)C[C@H](NC(=O)[C@H](CC(C)C)NC(=O)[C@H](CCCCN)NC(=O)[C@H](CCCCN)NC(=O)[C@H](CC(C)C)NC(=O)[C@H](CCC(=O)O)NC(=O)[C@H](CCCCN)NC(=O)[C@H](CC(C)C)NC(=O)[C@@H](N)Cc1ccccc1)C(N)=O` [FLKELKKLL], the MIC is 14.1 µM (≈ 16 µg/mL) in assay [4], > 113 µM in [3], 113 µM (≈ 128 µg/mL) in [5] and 113 µM (≈ 128 µg/mL) in assay [6].

As for `CC(C)C[C@H](NC(=O)[C@H](CC(C)C)NC(=O)[C@H](CCCCN)NC(=O)[C@H](CCCCN)NC(=O)[C@H](CC(C)C)NC(=O)[C@H](CC(N)=O)NC(=O)[C@H](CCCCN)NC(=O)[C@H](CC(C)C)NC(=O)[C@@H](N)Cc1ccccc1)C(N)=O` [FLKNLKKLL], the MIC in assay [4] is 7.17 µM (≈ 7.99 µg/mL); in [3] it was > 115 µM; in [5], 115 µM (≈ 128 µg/mL); in [6] it was > 115 µM.

Take `CC(C)C[C@H](NC(=O)[C@H](CC(C)C)NC(=O)[C@H](CCCCN)NC(=O)[C@H](CCCCN)NC(=O)[C@H](CC(C)C)NC(=O)[C@@H]1CCCN1C(=O)[C@H](CCCCN)NC(=O)[C@H](CC(C)C)NC(=O)[C@@H](N)Cc1ccccc1)C(N)=O` [FLKPLKKLL]: the MIC in [4] is 7.28 µM (≈ 7.99 µg/mL); in [3], > 116 µM; in [5], > 116 µM; in assay [6], > 116 µM.

Regarding `CSCC[C@H](NC(=O)[C@@H](N)CO)C(=O)N[C@@H](CC(C)C)C(=O)N[C@@H](CO)C(=O)N[C@H](C(=O)N[C@@H](CC(C)C)C(=O)N[C@@H](CCCCN)C(=O)N[C@@H](CC(N)=O)C(=O)N[C@@H](CC(C)C)C(=O)NCC(=O)N[C@@H](CCCCN)C(=O)N[C@H](C(=O)NCC(=O)N[C@@H](CC(C)C)C(=O)NCC(=O)N[C@@H](Cc1ccccc1)C(=O)N[C@H](C(=O)N[C@@H](C)C(=O)O)C(C)C)C(C)C)C(C)C` [SMLSVLKNLGKVGLGFVA], the MIC in [7], in assay [8] and in assay [9] was > 200 µM in each case.

As for `CC(C)C[C@H](NC(=O)[C@H](CC(C)C)NC(=O)[C@H](CCCCN)NC(=O)[C@H](CCCCN)NC(=O)[C@H](CC(C)C)NC(=O)[C@@H](NC(=O)[C@H](CCCCN)NC(=O)[C@H](CC(C)C)NC(=O)[C@@H](N)Cc1ccccc1)C(C)C)C(N)=O` [FLKVLKKLL], the minimum inhibitory concentration (MIC) in assay [4] was found to be 7.26 µM (≈ 7.99 µg/mL); in [3], 29.1 µM (≈ 32 µg/mL); in assay [5] it was 29.1 µM (≈ 32 µg/mL); in assay [6], 29.1 µM (≈ 32 µg/mL).

On to `CC(C)C[C@H](NC(=O)CNC(=O)[C@H](C)NC(=O)[C@@H](NC(=O)[C@H](CCCN=C(N)N)NC(=O)[C@H](CCCN=C(N)N)NC(=O)[C@H](CC(C)C)NC(=O)[C@@H](N)CC(C)C)C(C)C)C(=O)N[C@@H](CC(C)C)C(=O)N[C@@H](CCCCN)C(=O)N[C@@H](CCC(N)=O)C(=O)N[C@@H](Cc1ccccc1)C(=O)N[C@@H](C)C(=O)N[C@@H](CCCCN)C(=O)O` [LLRRVAGLLKQFAK], for which the MIC is 4.96 µM (≈ 8 µg/mL) in assay [4], 9.92 µM (≈ 16 µg/mL) in [3], 2.48 µM (≈ 4 µg/mL) in [5] and 9.92 µM (≈ 16 µg/mL) in [10].

`CC[C@H](C)[C@H](NC(=O)CNC(=O)[C@H](CC(N)=O)NC(=O)[C@@H](NC(=O)[C@H](C)NC(=O)[C@H](CC(N)=O)NC(=O)[C@H](CC(C)C)NC(=O)[C@H](C)NC(=O)[C@H](C)NC(=O)[C@H](CCCN=C(N)N)NC(=O)CNC(=O)[C@H](C)NC(=O)[C@H](C)NC(=O)[C@H](C)NC(=O)[C@H](C)NC(=O)[C@H](CCSC)NC(=O)[C@H](CC(=O)O)NC(=O)[C@H](CCCCN)NC(=O)[C@@H](NC(=O)[C@H](CO)NC(=O)[C@H](CO)NC(=O)[C@H](Cc1c[nH]c2ccccc12)NC(=O)[C@H](CC(C)C)NC(=O)[C@@H](N)CO)[C@@H](C)CC)C(C)C)C(=O)N[C@@H](CC(C)C)C(=O)N[C@@H](CC(N)=O)C(=O)N1CCC[C@H]1C(N)=O` [SLWSSIKDMAAAAGRAALNAVNGILNP]: the MIC in assay [3] is 189 µM (≈ 512 µg/mL); in assay [11] it was 189 µM (≈ 512 µg/mL); in assay [5], 47.2 µM (≈ 128 µg/mL); in [8], > 189 µM.

For the compound `CC[C@H](C)[C@H](NC(=O)[C@H](CC(N)=O)NC(=O)[C@H](Cc1cnc[nH]1)NC(=O)[C@H](Cc1ccccc1)NC(=O)[C@H](CC(C)C)NC(=O)[C@H](CCSC)NC(=O)CNC(=O)[C@H](CC(C)C)NC(=O)[C@H](CCSC)NC(=O)[C@H](CCCCN)NC(=O)[C@@H](N)CC(C)C)C(=O)N[C@@H](CCCN=C(N)N)C(=O)N[C@@H](CC(N)=O)C(=O)N[C@H](C(=O)N[C@@H](CC(C)C)C(=O)N[C@@H](CCCCN)C(=O)N[C@H](C(=O)N[C@H](C(N)=O)C(C)C)[C@@H](C)O)[C@@H](C)CC` [LKMLGMLFHNIRNILKTV], the MIC in [12] is ≥ 64 µM; in [3] it was 128 µM (≈ 274 µg/mL); in assay [13], 64 µM (≈ 137 µg/mL).

With `CC(C)C[C@H](NC(=O)[C@H](CCCCN)NC(=O)[C@H](Cc1ccccc1)NC(=O)[C@H](CC(C)C)NC(=O)[C@H](CC(C)C)NC(=O)[C@@H]1CCCN1C(=O)[C@H](CCCCN)NC(=O)[C@H](CC(C)C)NC(=O)[C@H](CCCCN)NC(=O)[C@@H]1CCCN1C(=O)[C@H](CC(C)C)NC(=O)[C@H](CC(C)C)NC(=O)[C@H](CC(C)C)NC(=O)[C@H](CCCCN)NC(=O)[C@H](CC(C)C)NC(=O)[C@H](CC(C)C)NC(=O)[C@H](CCCCN)NC(=O)[C@@H](N)Cc1ccc(O)cc1)C(N)=O` [YKLLKLLLPKLKPLLFKL], the MIC in [14] is 1.78 µM (≈ 3.87 µg/mL); in assay [15], 69.1 µM (≈ 151 µg/mL); in assay [4], 4.54 µM (≈ 9.9 µg/mL).

For the compound `CC[C@H](C)[C@H](NC(=O)[C@H](CCCN=C(N)N)NC(=O)[C@@H](NC(=O)[C@@H]1CCCN1C(=O)[C@H](CCCN=C(N)N)NC(=O)[C@@H](NC(=O)[C@@H]1CCCN1C(=O)[C@H](CCCN=C(N)N)NC(=O)[C@H](CC(C)C)NC(=O)CNC(=O)[C@H](Cc1cnc[nH]1)NC(=O)[C@@H]1CCCN1C(=O)CNC(=O)[C@H](CC(C)C)NC(=O)[C@H](CC(N)=O)NC(=O)[C@H](Cc1c[nH]c2ccccc12)NC(=O)[C@H](C)NC(=O)[C@@H](NC(=O)[C@H](C)N)[C@@H](C)O)[C@@H](C)CC)[C@@H](C)CC)C(=O)N[C@@H](CCCN=C(N)N)C(=O)N1CCC[C@H]1C(=O)N[C@@H](CC(C)C)C(=O)N[C@@H](CS)C(=O)NCC(=O)N[C@@H](CCCCN)C(=O)N[C@@H](CC(=O)O)C(=O)N[C@@H](CCCCN)C(=O)N[C@@H](CO)C(=O)O` [ATAWNLGPHGLRPIRPIRIRPLCGKDKS], the minimum inhibitory concentration (MIC) in [10] is ≥ 100 µM.

For the compound `CC[C@H](C)[C@H](NC(=O)[C@@H](NC(=O)[C@@H]1CCCN1C(=O)[C@@H](NC(=O)[C@@H]1CCCN1C(=O)[C@H](CCCCN)NC(=O)[C@H](CCCCN)NC(=O)[C@H](CO)NC(=O)CN)C(C)C)[C@@H](C)CC)C(=O)N[C@@H](Cc1ccc(O)cc1)C(=O)N[C@H]1CSSC[C@@H](C(=O)N[C@@H](CCC(N)=O)C(=O)N[C@@H](CCCN=C(N)N)C(=O)N[C@@H](CCSC)C(=O)O)NC(=O)[C@H](CCCCN)NC(=O)[C@H](C)NC(=O)[C@H]([C@@H](C)O)NC(=O)[C@H](CCCN=C(N)N)NC(=O)[C@H](CCCN=C(N)N)NC(=O)[C@H](CCC(N)=O)NC1=O` [GSKKPVPIIYCQRRTAKCQRM], the MIC in assay [16] and in [5] was 13 µM (≈ 32 µg/mL) in each case.

Regarding `CC[C@H](C)[C@H](NC(=O)[C@H](CCCCN)NC(=O)[C@@H](N)CS)C(=O)N[C@@H](CC(N)=O)C(=O)N[C@@H](CCCCN)C(=O)N[C@@H](CCC(N)=O)C(=O)N[C@@H](CS)C(=O)O` [CKINKQC], the MIC in assay [7], in assay [8] and in [9] was > 200 µM in each case.
